The term DC50 denotes the concentration at which degradation of the target reaches its halfway point.

The target in the assay is T1, AR (Homo sapiens, UniProt P10275).
T1 construct: endogenous in cells; host or cells: VCaP cells
T1 sequence (P10275 1-920): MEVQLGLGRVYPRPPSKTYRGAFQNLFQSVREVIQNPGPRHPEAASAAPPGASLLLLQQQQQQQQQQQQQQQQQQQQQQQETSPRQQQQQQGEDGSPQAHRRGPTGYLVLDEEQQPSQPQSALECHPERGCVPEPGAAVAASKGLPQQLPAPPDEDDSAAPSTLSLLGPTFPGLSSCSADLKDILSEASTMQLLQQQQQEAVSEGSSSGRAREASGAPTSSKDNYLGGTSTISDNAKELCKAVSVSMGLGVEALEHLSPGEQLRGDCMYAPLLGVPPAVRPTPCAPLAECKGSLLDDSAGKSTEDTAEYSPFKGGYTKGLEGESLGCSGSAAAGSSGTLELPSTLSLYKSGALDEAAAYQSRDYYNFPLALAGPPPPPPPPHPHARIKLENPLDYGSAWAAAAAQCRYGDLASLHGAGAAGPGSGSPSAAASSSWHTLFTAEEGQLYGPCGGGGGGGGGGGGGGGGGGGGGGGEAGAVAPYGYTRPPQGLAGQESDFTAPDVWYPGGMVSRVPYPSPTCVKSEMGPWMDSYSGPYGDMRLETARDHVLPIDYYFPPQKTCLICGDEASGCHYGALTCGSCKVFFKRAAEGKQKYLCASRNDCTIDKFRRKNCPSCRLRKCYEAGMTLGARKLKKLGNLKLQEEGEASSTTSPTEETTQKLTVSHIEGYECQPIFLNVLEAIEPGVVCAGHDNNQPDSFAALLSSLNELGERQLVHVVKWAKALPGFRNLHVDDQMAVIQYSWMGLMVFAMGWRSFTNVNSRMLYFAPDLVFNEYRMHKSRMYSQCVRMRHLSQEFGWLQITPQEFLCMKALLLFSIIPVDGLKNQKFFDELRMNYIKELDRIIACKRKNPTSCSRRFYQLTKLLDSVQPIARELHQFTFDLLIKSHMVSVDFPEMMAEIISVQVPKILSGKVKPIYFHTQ
The assay can be described thus: VCAP AR Degradation Assay. In kind it is cell-based. To be noted: VCaP cells, 24 h; for DC50: AR ELISA, concentration when AR level = 50% of DMSO control; for Ymin: lowest AR level normalized to DMSO control. A digest of the protocol: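 VCaP cells in DMEM with 8% FBS treated 24 h at 37° C with a 10-point 1:3 series (top 5 μM final; 0.1% DMSO control). Total AR measured in lysates by sandwich ELISA and normalized to DMSO; DC50/EC50 from four-parameter logistic fit, with the lowest normalized AR level reported as Y.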

Where a name gives a salt, the structure may show the parent alone. Some results are limits rather than exact numbers.

`C[C@@H]1CN(CCO[C@H]2CC[C@H](N3C(=S)N(c4ccc(C#N)c(C(F)(F)F)c4)C(=O)C3(C)C)CC2)C[C@H](C)N1CC(=O)Nc1ccc(N2CCC(=O)NC2=O)cc1` [Cmpd 1, 2-((2S,6R)-4-(2-((trans-4-(3-(4-Cyano-3-(trifluoromethyl)phenyl)-5,5-dimethyl-4-oxo-2-thioxoimidazolidin-1-yl)cyclohexyl)oxy)ethyl)-2,6-dimethylpiperazin-1-yl)-N-(4-(2,4-dioxotetrahydropyrimidin-1(2H)-yl)phenyl)acetamide hydrochloride] displayed a DC50 of 100 to 10000 nM. The Ymin result (class symbols) was “*** (30%<Y<80%)”.

`CC1(C)C(=O)N(c2ccc(C#N)c(C(F)(F)F)c2)C(=S)N1[C@H]1CC[C@H](OCCN2CCN(CC(=O)Nc3ccc(C4CCC(=O)NC4=O)cc3)[C@@H](C(F)(F)F)C2)CC1` (stereo partly drawn) [Cmpd 23, 2-((R)-4-(2-((trans-4-(3-(4-Cyano-3-(trifluoromethyl)phenyl)-5,5-dimethyl-4-oxo-2-thioxoimidazolidin-1-yl)cyclohexyl)oxy)ethyl)-2-(trifluoromethyl)piperazin-1-yl)-N-(4-(2,6-dioxopiperidin-3-yl)phenyl)acetamide hydrochloride] showed a DC50 of 5 to 15 nM. Further, the Ymin entry (class symbols) is “* (0<Y≤20%)”.

For `C[C@@H]1CN(CCCO[C@H]2CC[C@H](N3C(=S)N(c4ccc(C#N)c(C(F)(F)F)c4)C(=O)C3(C)C)CC2)C[C@H](C)N1CC(=O)Nc1ccc(C2CCC(=O)NC2=O)cc1` (stereo partly drawn) [Cmpd 12, 2-((2R,6S)-4-(3-((trans-4-(3-(4-Cyano-3-(trifluoromethyl)phenyl)-5,5-dimethyl-4-oxo-2-thioxoimidazolidin-1-yl)cyclohexyl)oxy)propyl)-2,6-dimethylpiperazin-1-yl)-N-(4-(2,6-dioxopiperidin-3-yl)phenyl)acetamide hydrochloride], the DC50 is at most 5 nM. Besides, the Ymin result (class symbols) is “** (20%<Y≤30%)”.

In turn, `CC1(C)C(=O)N(c2ccc(C#N)c(C(F)(F)F)c2)C(=S)N1[C@H]1CC[C@H](OCCC2CCN(CC(=O)Nc3ccc(C4CCC(=O)NC4=O)cc3)CC2(F)F)CC1` (stereo partly drawn) [Cmpd 43, 2-(4-(2-(((trans)-4-(3-(4-Cyano-3-(trifluoromethyl)phenyl)-5,5-dimethyl-4-oxo-2-thioxoimidazolidin-1-yl)cyclohexyl)oxy)ethyl)-3,3-difluoropiperidin-1-yl)-N-(4-(2,6-dioxopiperidin-3-yl)phenyl)acetamide] displayed a DC50 of at most 5 nM. For the same molecule, where the note is “given as numbers”, the Ymin was 18 % of DMSO control.

On to `CC1(C)C(=O)N(c2cnc(C#N)c(C(F)(F)F)c2)C(=S)N1[C@H]1CC[C@H](CCCN2CCN(CC(=O)Nc3ccc(C4CCC(=O)NC4=O)cc3)[C@@H](C(F)(F)F)C2)CC1` (stereo partly drawn) [Cmpd 33, 2-((R)-4-(3-((trans)-4-(3-(6-Cyano-5-(trifluoromethyl)pyridin-3-yl)-5,5-dimethyl-4-oxo-2-thioxoimidazolidin-1-yl)cyclohexyl)propyl)-2-(trifluoromethyl)piperazin-1-yl)-N-(4-(2,6-dioxopiperidin-3-yl)phenyl)acetamide], for which the DC50 was in the range of 5 to 15 nM. The Ymin (given as numbers) is on record as 17 % of DMSO control.

(Values after patent US20240368118A1, “CEREBLON BINDING COMPOUNDS, COMPOSITIONS THEREOF, AND METHODS OF TREATMENT THEREWITH” (CELGENE CORPORATION, priority 2021, published 2024).)
